Consider 50 compounds from PubChem BioAssay AID1996.

Converted amounts (≈) assume the structure as drawn. Bounds are passed on as bounds.

For this series the following is noted: buffer; pH 7.4; 200.0 µM.
For the compound `COc1ccc2occ(C(=O)c3ccc(N)cc3)c2c1`, the kinetic solubility was found to be 1.7 µg/mL (≈ 6.36 µM).

The compound `CC1=CC2=NC(=O)/C(=C/c3cccn3Cc3ccccc3)C(=N)N2O1` came in with a kinetic solubility of 2.7 µg/mL (≈ 8.12 µM).

Regarding `COc1ccc(OC)c2c1sc(=NC(=O)C1COc3ccccc3O1)n2C` (stereo not given), the solubility (kinetic) is less than 0.4 µg/mL.

In the case of `Cl.c1ccc(Cc2ccc(OCCN3CCOCC3)cc2)cc1`, the solubility (kinetic) is 42.2 µg/mL.

Compound `CCn1c(NCc2ccc(OC)cc2)nc2ccccc21` displayed a solubility (kinetic) greater than 42.2 µg/mL.

In the case of `CCCCN(C(=O)c1cnccn1)c1c(N)n(CCC)c(=O)[nH]c1=O`, the kinetic solubility came to 46.9 µg/mL (≈ 135 µM).

`Cc1noc(COc2ccccc2OCC(N)=O)n1` came in with a kinetic solubility greater than 39.5 µg/mL.

On to `CN(c1cccc(NS(=O)(=O)c2ccccc2)c1)S(C)(=O)=O`, for which the solubility (kinetic) is greater than 51.1 µg/mL.

As for `COc1ccc(NC(=O)O/N=C/c2ccc(N(C)C)cc2)cc1`, the kinetic solubility came to 2.8 µg/mL (≈ 8.94 µM).

The compound `O=C(O)C(Sc1ccncn1)c1ccccc1` (stereo not given) returned a kinetic solubility of 26.4 µg/mL (≈ 107 µM).

For the compound `Cc1cn(C2CC(OC(=O)C(C)C)C(CO)O2)c(=O)[nH]c1=O` (stereo not given), the solubility (kinetic) was greater than 46.8 µg/mL.

The compound `CCOc1ccc(Br)cc1S(=O)(=O)N1CCSC1` gave a kinetic solubility of 7.2 µg/mL (≈ 20.4 µM).

As to `Cc1cc(S(=O)(=O)NCc2ccco2)c(C)cc1Cl`, the kinetic solubility is greater than 45 µg/mL.

Consider `CCN(CC)C(=S)Oc1ccc(Cl)cc1Cl`, for which the solubility (kinetic) amounted to 0.9 µg/mL (≈ 3.24 µM).

`CN(CC(=O)Nc1ccccc1Cl)C(=O)COC(=O)c1ccc(-c2ccc(O)cc2)cc1` showed a kinetic solubility of 3.2 µg/mL (≈ 7.07 µM).

Turning to `Cc1cccc(C)c1NC(=O)NC1(C(=O)N2CCCCC2)CCCCC1`, the solubility (kinetic) came to 45.6 µg/mL (≈ 128 µM).

In the case of `CC(Sc1nncs1)C(=O)NC1CCCCC1C` (stereo not given), the solubility (kinetic) is greater than 42.8 µg/mL.

In the case of `COc1cccc(N2CCN(CC(=O)NCc3ccccc3)CC2)c1`, the kinetic solubility is 50.3 µg/mL (≈ 148 µM).

`O=C(COC(=O)c1cc(Cl)ccc1O)Nc1cc(C(F)(F)F)ccc1N1CCOCC1` showed a solubility (kinetic) of 3.5 µg/mL (≈ 7.63 µM).

`Cc1ccc2nc(-c3ccc4c(c3)NC(=O)CO4)cn2c1` returned a solubility (kinetic) of 3.2 µg/mL (≈ 11.5 µM).

For `CNC(=O)c1cc(C(=O)c2ccc(Cl)cc2)c(Br)[nH]1`, the solubility (kinetic) was 1.7 µg/mL (≈ 4.98 µM).

Consider `O=C(CCNC(=O)c1ccco1)Nc1ccc(OC(F)(F)F)cc1`, for which the kinetic solubility amounted to 19.7 µg/mL (≈ 57.6 µM).

In turn, `COc1ccc(/C=C/C(=O)OCC(=O)NC2CCCCCCC2)cc1` had a kinetic solubility of 7.6 µg/mL (≈ 22 µM).

The compound `CN(CC(=O)O)S(=O)(=O)c1ccc2c(c1)NC(=O)CC(=O)N2` yielded a solubility (kinetic) greater than 49.1 µg/mL.

The compound `CC(OC(=O)c1cccnc1Cl)C(=O)Nc1ccc2c(c1)OCO2` (stereo not given) had a solubility (kinetic) greater than 52.3 µg/mL.

For the compound `COc1cccc(/C=C/C(=O)Nc2ccccc2N2CCOCC2)c1`, the solubility (kinetic) is 28.1 µg/mL (≈ 83 µM).

As to `Cc1cccc(CC(=O)N2CCN(C(=O)c3ccco3)CC2)c1`, the kinetic solubility is greater than 46.9 µg/mL.

As to `O=C(Nc1ccccc1)Nc1scc2c1c(=O)oc1ccccc12`, the kinetic solubility was less than 0.4 µg/mL.

For the compound `COCCN(C(=S)Nc1c(C)cccc1C)C(C)c1ccco1` (stereo not given), the solubility (kinetic) was found to be 47.1 µg/mL (≈ 142 µM).

`CCc1cc(C(=O)c2ccccc2)c(N)s1` registered a solubility (kinetic) of 16.6 µg/mL (≈ 71.8 µM).

On to `CC(CCN1CCN(c2ccc(F)cc2)CC1)c1ccccc1` (stereo not given), for which the solubility (kinetic) is 19.6 µg/mL (≈ 62.7 µM).

For `Cc1cc(NC(=O)CN2C(=O)NC(C)(c3ccc(Cl)cc3Cl)C2=O)no1` (stereo not given), the solubility (kinetic) was 7.4 µg/mL (≈ 18.6 µM).

Consider `Cc1onc(-c2c(Cl)cccc2Cl)c1C(=O)Nc1ccc(Cl)cn1`, for which the solubility (kinetic) came out at 3.9 µg/mL (≈ 10.2 µM).

For the compound `CC(=O)Nc1ccc(SCC(=O)NCC2(N3CCCCC3)CCCCC2)cc1`, the kinetic solubility was greater than 60.5 µg/mL.

The compound `COc1ccc(CCC(=O)NC(C)c2ccccc2)cc1OC` (stereo not given) showed a solubility (kinetic) greater than 47 µg/mL.

Turning to `CN1CCN(c2ccc(NC(=O)c3ccco3)cc2Cl)CC1`, the solubility (kinetic) was 45.3 µg/mL (≈ 142 µM).

For `O=C1OC(N2C(=O)CC[C@H]2C(=O)Nc2ccc3c(c2)OCO3)c2ccccc21` (stereo not given in full), the solubility (kinetic) was greater than 57.1 µg/mL.

With `Cc1ccccc1-c1nc(CN2CCSCC2)c(C)o1`, the solubility (kinetic) turned out to be 26.1 µg/mL (≈ 90.5 µM).

As to `COc1ccc(NC(=S)NC(=O)/C=C/c2ccco2)c(OC)c1`, the solubility (kinetic) was less than 0.4 µg/mL.

For `Cl.O=C(OCCN1CCCCC1)c1ccccc1F`, the kinetic solubility is greater than 43.2 µg/mL.

Compound `CC1(C)OC(=O)N(CCC(=O)Nc2cccc(F)c2)C1(C)O` (stereo not given) returned a solubility (kinetic) greater than 46.5 µg/mL.

For the compound `Cc1cccc(NC(=O)c2ccc(S(=O)(=O)N3CCCC3)cc2)c1C`, the solubility (kinetic) amounted to 2 µg/mL (≈ 5.58 µM).

In turn, `O=C(O)C(Cc1ccccc1)N1C(=O)c2c(Cl)c(Cl)c(Cl)c(Cl)c2C1=O` (stereo not given) returned a solubility (kinetic) greater than 65 µg/mL.

For the compound `CCC1(C)NC(=O)N(CC(=O)Nc2cc(C)on2)C1=O` (stereo not given), the solubility (kinetic) was greater than 42 µg/mL.

In the case of `COC(=O)CN1C(=O)c2cccc3cccc1c23`, the solubility (kinetic) is greater than 36.2 µg/mL.

As to `NC(=O)Cn1cc(C=C2C(=O)NC(=O)NC2=O)c2ccccc21`, the kinetic solubility is 11.3 µg/mL (≈ 36.2 µM).

Consider `Cc1ccc(NC(=O)c2ccc(COc3ccccc3)o2)nc1`, for which the solubility (kinetic) worked out at 16 µg/mL (≈ 51.9 µM).

In turn, `CN(C)CCNc1cnn(-c2ccccc2)c(=O)c1Cl` displayed a solubility (kinetic) greater than 43.9 µg/mL.

`CC(C)c1ccccc1NC(=O)CC1(CC(=O)O)CCCC1` displayed a solubility (kinetic) greater than 45.5 µg/mL.

Turning to `CC(C)[C@H](NC(=O)c1ccccc1)C(=O)O`, the kinetic solubility was greater than 33.2 µg/mL.
